Assays:
[1] = tested on: PGE2 release by human monocytes; test: Assay (f): stimulated eicosanoid release by human monocytes, Prostaglandin E2; format: cell-based; conditions: Monocyte, 0.25 h, A23187 1 μM, 15 min
Procedure: (§1) Human Monocyte Isolation. Leukocyte-rich leukopaks obtained from Biological Specialties (Lansdale, Pa.) were collected from male volunteers who were not taking antiinflammatory drugs. Leukopaks were centrifuged (90×g for 15 min) twice to remove the platelet-rich plasma. The cell pellet was washed by centrifugation and resuspended in HBSS without Ca^2+ or Mg^2+. Histopaque 1077 was layered under the cell suspension and centrifuged at 400×g for 30 min to obtain the buffy coat. The interfacial buffy coat, containing monocytes and lymphocytes, was removed and saved. The buffy coat was washed twice with HBSS Without Ca^2+ or Mg^2+ by centrifugation. The cell pellet (4-6×10^8 cells/30 mls) was resuspended in iso-osmotic media (RPMI-1640, 10% heat inactivated fetal bovine serum (FBS), 0.2 mM L-glutamine, 2.5 mM HEPES) and layered over an equal volume of 46% Percol mixture (10X PBS/Percol; 9.25/0.75) and 54% iso-osmotic media and centrifuged for 30 min at 1000×g (Marshall and Roshak, Biochem. Cell Biol. 71: 331-339, 1993). The monocyte population located at the interface of the Percoll gradient was removed and washed twice in HBSS without Ca^2+ or Mg^2+.
(§2) Measurement of Stimuli-Induced Eicosanoid Release Monocytes (5×10^6 /ml) were incubated as a suspension in serum-free RPMI-1640 medium containing the vehicle DMSO (<1%) or drug for 30 min at 27° C. after which vehicle or stimuli was added for the indicated time. The stimulating agent is solubilized in DMSO and appropriate vehicle controls were included in all experiments. The amount of stimuli was chosen from the linear portion of a concentration versus product curve usually representing 60-80% maximal stimulation over the indicated incubation time at 37° C. (A23187, 1 μM,(15 min). The reaction was terminated by reduction of pH through addition of citric acid and centrifugation (10 min, 400×g, 4° C.). Cell viability was monitored before and after experiments using trypan blue exclusion. The cell-free media was decanted and stored at -70° C. until analyzed. Prostaglandin E2 and LTC4 were directly measured in cell-free media using enzyme immunoassay (EIA) kits purchased from Caymen Chemical Co. (Ann Arbor, Mich.). Sample or standard dilutions were made with appropriate media and analyzed in triplicate. Results were obtained by extrapolation from a standard curve prepared in the media and expressed as pg or ng/ml of sample.

[2] = tested on: LTC4 release by human monocytes; test: Assay (f): stimulated eicosanoid release by human monocytes, LTC4; format: cell-based; conditions: Monocyte, 0.25 h, A23187 1 μM, 15 min
Procedure: as §1, §2

[3] = tested on: TPA-induced Mouse Ear Inflammation; test: Assay (g): TPA-induced mouse ear inflammation (ear edema and MPO); format: in vivo; conditions: for TPA % change in edema / change in MPO for TPA model: topically administered, doses 0.2 (dexamethasone), 0.1 (scalaradial), 0.3 (WY 50,295), dose unit not given
Procedure: (§3) Male Balb/c inbred mice were obtained from Charle River Breeding Laboratories (Kingston, N.Y.). Within a single experiment mice (22-25 g) were age-matched. These in vivo experiments typically involved use of 5-6 animals/group.
TPA (12-0-tetradecanoylphorbol 13-acetate) (Sigma Chemical Company) in acetone (4 mg/20 ml) was applied to the inner and outer surfaces of the left ear of BALB/c male mice. The thickness of both ears was then measured with a dial micrometer (Mitutoyo, Japan) at both 2 and 4 hours after treatment, and the data expressed as the change in thickness (10^-3 cm) between treated and untreated ears. […] After measuring the edema, the inflammed left ears were removed and stored at -70° C. until they were assayed for MPO (myeloperoxidase) activity where appropriate.
(§4) On the day of the assay, partially thawed ear tissues were minced and then homogenized (10% w/v) with a Tissumizer homogenizer (Tekmar Co.) in 50 mM phosphate buffer (pH 6) containing 0.5% HTAB. The tissue homogenates were taken through three cycles of freeze-thaw, followed by brief sonication (10 sec). The method of Bradley et al. was used with modifications as described. […] Supernatant MPO activity was quantified kinetically (change in absorbance measured over 3 min, sampled at 15-sec intervals) using a Beckman DU-7 spectrophotometer and a Kinetics Analysis package (Beckman Instruments, Inc.). One unit of MPO activity is defined as that degrading one micromole of peroxide per minute at 25° C.
Statistical analysis was done using Student's "t" test.

[4] = tested on: Arachidonic acid induced ear inflammation; test: Assay (h): Arachidonic acid induced ear inflammation (ear edema and MPO); format: in vivo, mouse; conditions: for effect in the AA ear model (in words): at concentrations which were effective in the TPA ear model
Procedure: as §3, §4
Arachidonic acid is dissolved in acetone (ling/ear) to the left ear of BALB/c male mice. The thickness of both ears was measured with a constant pressure thickness guage 1 hour after treatment and the data expressed as the change in thickness between treated and untreated ears. Test compounds or vehicle are given at the time of AA applciation. The inflammatory cell infiltration is measured by MPO activity as described above in the TPA ear edema assay. After the edema measurements are made, the inflamed ears are removed and assayed for MPO activity.

[5] = topically administered, doses 0.2 (dexamethasone), 0.1 (scalaradial), 0.3 (WY 50,295), dose unit not given

Structure (SMILES) | IC50 [1] [µM] | IC50 [2] [µM] | TPA % change in edema [3] [%] | effect in the AA ear model (in words) [4] | AA change in edema [4, 5] [%] | other results
O=C(O)c1ccccc1Oc1ccc(C(F)(F)F)cc1NS(=O)(=O)c1ccc2ccccc2c1 [Example 3, 2-[2-(2-Naphthylsulfonamido)-4-trifluoromethylphenoxy]benzoic acid] | > 30 | 2 |  |  |  | 
O=C(O)c1ccccc1Oc1ccccc1NS(=O)(=O)c1cc(C(F)(F)F)cc(C(F)(F)F)c1 [Example 10, 2-[2-[3,5-Bis(trifluoromethyl)phenylsulfonamido]phenoxy]benzoic acid] | > 100 | 1 |  |  |  | 
CCCCCCCCS(=O)(=O)Nc1ccccc1Oc1ccccc1C(=O)O [Example 11, 2-[2-(Octylsulfonamido)phenoxy]benzoic acid] | 10 to 20 | 1 |  |  |  | 
Cc1ccc(Oc2ccccc2C(=O)O)c(NS(=O)(=O)c2cc(C(F)(F)F)cc(C(F)(F)F)c2)c1 [Example 12, 2-[2-[3,5-bis(Trifluoromethyl)phenylsulfonamido]-4-methylphenoxy]benzoic acid] | > 30 | 1 |  |  |  | 
CCC(C)(C)c1ccc(Oc2ccc(C(F)(F)F)cc2NS(=O)(=O)c2cc(C(F)(F)F)cc(C(F)(F)F)c2)c(C(=O)O)c1 [Example 17, 2-[2-[3,5-Bis(trifluoromethyl)phenyl]sulfonamido-4-trifluoromethylphenoxy]-5-(1,1-dimethylpropyl)benzoic acid] | > 3 | 0.05 |  |  |  | 
CN(c1cc(C(F)(F)F)ccc1Oc1ccccc1C(=O)O)S(=O)(=O)c1cc(C(F)(F)F)cc(C(F)(F)F)c1 [Example 27, 2-[2-[3,5-bis(Trifluoromethyl)phenyl-N-methylsulfonamido]-4-trifluoromethylphenoxy]benzoic acid] |  |  |  |  |  | inhibition in the MPO assay ([3]; mouse ear inflammation, MPO): positive inhibition; response in the Edema aspects of this animal model ([3]; mouse ear inflammation, edema): not a significant response
C[C@H](C(=O)O)c1ccc2cc(OCc3ccc4ccccc4n3)ccc2c1 [WY 50,295] |  |  | -18 | strongly inhibits inflammation | -50 | change in MPO for TPA model [3]: -36
C[C@@H]1C[C@H]2[C@@H]3CCC4=CC(=O)C=C[C@]4(C)[C@@]3(F)[C@@H](O)C[C@]2(C)[C@@]1(O)C(=O)CO [dexamethasone] |  |  | -50 | little or no effect | -10 | change in MPO for TPA model [3]: -54; change in MPO for AA [4, 5]: 0
CC(=O)O[C@H]1C[C@@H]2[C@@]3(C)CCCC(C)(C)[C@@H]3CC[C@@]2(C)[C@@H]2CC=C(C=O)[C@H](C=O)[C@@]12C [scalaradial] |  |  | -46 | little or no effect | -11 | 

— US5545669A, “Anti-inflammatory compounds” (priority 1994, dated 1996)
